Measured values published in US20250057785A1, “APPLICATION OF 10'(Z), 13'(E), 15'(E)-HEPTADECATRIENYL HYDROQUINONE (HQ17(3)) IN TREATING CORONAVIRUS INFECTION” (National Atomic Research Institute, priority 2023, published 2025).

What was measured:
blood cancer HL-60 cells = conditions: 5 uM, cultured for 48 hours; cited from earlier work
[1] = intraperitoneal injection of 1 mg/kg daily for 28 days, F344 rats; cited from earlier work
[2] = tested on: peripheral white blood cells; conditions: cited from earlier work
[3] = tested on: novel coronavirus (SARS-COV-2); assay: Vero E6 cells plaque assay of SARS-COV-2 replication; format: cell-based

Structure (SMILES): C/C=C/C=C/C/C=C\CCCCCCCCCc1cc(O)ccc1O [HQ17(3), 10′(Z), 13′(E), 15′(E)-Heptadecatrienyl hydroquinone]
- replication of HL-60 cells (blood cancer HL-60 cells): the replication of blood cancer HL-60 cells was stopped
- toxicity in rats [1]: no toxicity was observed
- effect on peripheral white blood cells ([2]; 5 uM): no effect on peripheral white blood cells
- toxicity on peripheral white blood cells ([2]; 50 uM): no toxicity on peripheral white blood cells was observed
- virus inhibition rate (viral plaques) ([3]; 10 uM HQ17(3), stock in 0.1% DMSO, Vero E6 cells, one week): more than 60%
- EC50 ([3]; Severe acute respiratory syndrome coronavirus 2, Vero C1008, 168 h, read-out: EC50, inhibition of SARS-COV-2 replication in cells by 50%): 8.5 ± 0.96 µM
